# From patent publication US12215354B2, “Differentiation of human embryonic stem cells into single hormonal insulin positive cells” (Janssen Biotech, Inc., priority 2011, dated 2025)
# Experiments:
# [1] = tested on: human embryonic stem cell line H1; assay: Real-time PCR gene expression, timing of BMP inhibition at stage 3 (Example 3); assay type: cell-based
# Method: Cells of the human embryonic stem cell line H1 at various passages (passage 40 to passage 52) were seeded as single cells at a density of 100,000 cells/cm^2 on MATRIGEL™ (1:30 dilution) coated dishes in mTesr™1 media supplemented with 10 μM of Y27632. Forty eight hours post seeding, cultures were differentiated into cells of the pancreatic endocrine lineage as follows: • a. Stage 1 (Definitive Endoderm (DE)−4 days): Prior to start of DE, the cells were washed and incubated with incomplete PBS (no Mg or Ca) for 30 seconds followed by incubation in S1 media. Human embryonic stem cells cultured as single cells on MATRIGEL™-coated dishes were treated for one day with MCDB-131 medium supplemented with 0.1% fatty acid-free BSA, 0.0012 g/ml sodium bicarbonate, 1× GLUTAMAX™, 2.5 mM D-Glucose, 100 ng/ml GDF8, 1.5 μM MCX compound (GSK3B inhibitor). Cells were then treated for […] (days 2-4) with MCDB-131 medium supplemented with 0.1% fatty acid-free BSA, 0.0012 g/ml sodium bicarbonate, 1× GLUTAMAX™, 2.5 mM glucose, and 100 ng/ml GDF8. • b. Stage 2 (Primitive gut tube−3 days): Stage 1 cells were treated for three days with MCDB-131 medium supplemented with 0.1% fatty acid-free BSA, 0.0012 g/ml sodium bicarbonate, 1× GLUTAMAX™, 2.5 mM D-Glucose, and 50 ng/ml FGF7. • c. Stage 3 (Foregut−3 days): Stage 2 cells were treated with MCDB-131 medium supplemented with a 1:200 dilution of ITS-X, 2.5 mM Glucose, 1× GLUTAMAX™, 0.0015 g/ml sodium bicarbonate, 2% fatty acid-free BSA, 0.25 μM SANT-1, 20 ng/ml of Activin-A, 2 μM RA, 50 ng/ml FGF7, 100 nM LDN-193189 (on day 1 only or for the duration of stage 3), and 200 nM TPB. In some cultures, LDN-193189 was removed from stage 3. • d. Stage 4 (Pancreatic foregut precursor-3 days): Stage 3 cells were treated with MCDB-131 medium supplemented with a 1:200 dilution of ITS-X, 2.5 mM Glucose, 1× GLUTAMAX™, 0.0015 g/ml sodium bicarbonate, 2% fatty acid-free BSA, 0.25 μM SANT-1, 100 nM TPB, 200 nM LDN-193189, 2 μM ALk5 inhibitor, and 100 nM CYP26A inhibitor for three days. • e. […]
# [2] = tested on: human embryonic stem cell line H1; assay: Real-time PCR gene expression, dose of BMP inhibitor at S4 (Example 5); assay type: cell-based; settings: 50 nM or 100 nM at days 1, 2, 3, or 4 of S4
# Method: Cells of the human embryonic stem cell line H1 at various passages (passage 40 to passage 52) were seeded as single cells at a density of 100,000 cells/cm^2 on MATRIGEL™ (1:30 dilution) coated dishes in mTesr™1 media and 10 μM of Y27632. Forty eight hours post seeding, cultures were differentiated into pancreatic endocrine lineage as follows: • a. Stage 1 (Definitive Endoderm (DE)−4 days): Prior to start of DE, the cultures were washed and incubated with incomplete PBS (no Mg or Ca) for 30 seconds followed by addition of the stage 1 media. Human embryonic stem cells cultured as single cells on MATRIGEL™-coated dishes were treated with MCDB-131 medium supplemented with 0.1% fatty acid-free BSA, 0.0012 g/ml sodium bicarbonate, 1× GLUTAMAX™, 2.5 mM D-Glucose, 100 ng/ml GDF8, and 1 μM MCX compound (GSK3B inhibitor) for one day. Cells were then treated with MCDB-131 medium supplemented with 0.1% fatty acid-free BSA, 0.0012 g/ml sodium bicarbonate, 1× GLUTAMAX™, 2.5 mM glucose, and 100 ng/ml GDF8 for days 2-4. • b. Stage 2 (Primitive gut tube−3 days): Stage 1 cells were treated with MCDB-131 medium supplemented with 0.1% fatty acid-free BSA, 0.0012 g/ml sodium bicarbonate, 1× GLUTAMAX™, 2.5 mM D-Glucose, and 50 ng/ml FGF7 for three days. • c. […]
# [3] = at stage 4, 100 nM LDN-193189 on first day of stage 3, removed at days 2-3
smiles,measurement,setting,value
c1ccc2c(-c3cnn4cc(-c5ccc(N6CCNCC6)cc5)cnc34)ccnc2c1 [LDN-193189],expression of SOX2,"[1]; at S3-S4, LDN-193189 retained for the duration of stage 3",very high expression
same,CDX2 and SOX2 expression,[1]; [3],decreasing
same,expression of NGN3 and NeuroD,[1]; [3],significantly boosted
same,expression of endocrine markers,[2],prolong
same,expression of SOX2,[2]; at S4-S5,low expression
